Laboratory results taken from the NIST ThermoML archive (doi:10.1016/j.jct.2014.01.012).
Numbers after ± are expanded uncertainties.

Assay: refractive index (Na D-line) (dimensionless); xn = mol fraction of the nth substance listed
Details: 101 kPa, Liquid

CCCCCCn1cc[n+](C)c1.F[P-](F)(F)(F)(F)F [1-hexyl-3-methylimidazolium hexafluorophosphate] + CCCCOC(C)=O
refractive index, Standard Abbe refractometry
Details | 293.15 K | 298.15 K | 303.15 K | 308.15 K | 313.15 K | 318.15 K | 323.15 K
x1 = 0.0956 | 1.40012 ± 0.00044 | 1.39835 ± 0.00044 | 1.39654 ± 0.00044 | 1.39469 ± 0.00044 | 1.39293 ± 0.00044 | 1.39102 ± 0.00044 | 1.38925 ± 0.00044
x1 = 0.1919 | 1.40555 ± 0.00046 | 1.40397 ± 0.00046 | 1.40209 ± 0.00046 | 1.40028 ± 0.00046 | 1.39856 ± 0.00046 | 1.39677 ± 0.00046 | 1.39495 ± 0.00046
x1 = 0.273 | 1.40899 ± 0.00048 | 1.40746 ± 0.00048 | 1.40564 ± 0.00048 | 1.40392 ± 0.00048 | 1.40223 ± 0.00048 | 1.40049 ± 0.00048 | 1.39879 ± 0.00048
x1 = 0.3698 | 1.41222 ± 0.00051 | 1.41064 ± 0.00051 | 1.40899 ± 0.00051 | 1.40735 ± 0.00051 | 1.40568 ± 0.00051 | 1.40401 ± 0.00051 | 1.40239 ± 0.00051
x1 = 0.4639 | 1.41432 ± 0.00053 | 1.41299 ± 0.00053 | 1.41138 ± 0.00053 | 1.40987 ± 0.00053 | 1.40837 ± 0.00053 | 1.40682 ± 0.00053 | 1.40529 ± 0.00053
x1 = 0.5701 | 1.41616 ± 0.00057 | 1.41482 ± 0.00057 | 1.41349 ± 0.00057 | 1.41215 ± 0.00057 | 1.41074 ± 0.00057 | 1.40945 ± 0.00057 | 1.40808 ± 0.00057
x1 = 0.6787 | 1.41768 ± 0.0006 | 1.41633 ± 0.0006 | 1.41519 ± 0.0006 | 1.41385 ± 0.0006 | 1.41265 ± 0.0006 | 1.41139 ± 0.0006 | 1.41024 ± 0.0006
x1 = 0.7746 | 1.41841 ± 0.00064 | 1.41727 ± 0.00064 | 1.41623 ± 0.00064 | 1.41512 ± 0.00064 | 1.41392 ± 0.00064 | 1.41269 ± 0.00064 | 1.41151 ± 0.00064
x1 = 0.8707 | 1.41937 ± 0.00067 | 1.41819 ± 0.00067 | 1.41713 ± 0.00067 | 1.41606 ± 0.00067 | 1.41477 ± 0.00067 | 1.41373 ± 0.00067 | 1.41268 ± 0.00067
x1 = 0.9354 | 1.41972 ± 0.0007 | 1.41876 ± 0.0007 | 1.41773 ± 0.0007 | 1.41651 ± 0.0007 | 1.41522 ± 0.0007 | 1.41386 ± 0.0007 | 1.41261 ± 0.0007
x1 = 1 | 1.42064 ± 0.00072 | 1.41935 ± 0.00072 | 1.41806 ± 0.00072 | 1.41676 ± 0.00072 | 1.41547 ± 0.00072 | 1.41417 ± 0.00072 | 1.41288 ± 0.00072

CCCCCCn1cc[n+](C)c1.F[P-](F)(F)(F)(F)F [1-hexyl-3-methylimidazolium hexafluorophosphate] + CCOC(C)=O
refractive index
Details | 293.15 K | 298.15 K | 303.15 K | 308.15 K | 313.15 K | 318.15 K | 323.15 K
x1 = 0.09053 | 1.38737 ± 0.00081 | 1.38598 ± 0.00081 | 1.38515 ± 0.00081 | 1.38415 ± 0.00081 | 1.38344 ± 0.00081 | 1.38227 ± 0.00081 | 1.38202 ± 0.00081
x1 = 0.1751 | 1.39825 ± 0.00082 | 1.39706 ± 0.00082 | 1.39611 ± 0.00082 | 1.39519 ± 0.00082 | 1.39414 ± 0.00082 | 1.39389 ± 0.00082 | 1.39323 ± 0.00082
x1 = 0.2748 | 1.40432 ± 0.00083 | 1.40351 ± 0.00083 | 1.402 ± 0.00083 | 1.40105 ± 0.00083 | 1.40023 ± 0.00083 | 1.39983 ± 0.00083 | 1.3989 ± 0.00083
x1 = 0.3638 | 1.40809 ± 0.00084 | 1.40694 ± 0.00084 | 1.40594 ± 0.00084 | 1.40487 ± 0.00084 | 1.40397 ± 0.00084 | 1.40319 ± 0.00084 | 1.40308 ± 0.00084
x1 = 0.4747 | 1.41069 ± 0.00086 | 1.40989 ± 0.00086 | 1.40899 ± 0.00086 | 1.40784 ± 0.00086 | 1.40699 ± 0.00086 | 1.40607 ± 0.00086 | 1.40548 ± 0.00086
x1 = 0.5959 | 1.41247 ± 0.00089 | 1.41194 ± 0.00089 | 1.41159 ± 0.00089 | 1.41107 ± 0.00089 | 1.40998 ± 0.00089 | 1.4091 ± 0.00089 | 1.4082 ± 0.00089
x1 = 0.6988 | 1.41456 ± 0.00091 | 1.41432 ± 0.00091 | 1.41357 ± 0.00091 | 1.41273 ± 0.00091 | 1.41182 ± 0.00091 | 1.41087 ± 0.00091 | 1.40995 ± 0.00091
x1 = 0.7782 | 1.41641 ± 0.00094 | 1.41609 ± 0.00094 | 1.41526 ± 0.00094 | 1.41451 ± 0.00094 | 1.41389 ± 0.00094 | 1.41215 ± 0.00094 | 1.41181 ± 0.00094
x1 = 0.8784 | 1.41817 ± 0.00096 | 1.41813 ± 0.00096 | 1.41735 ± 0.00096 | 1.41622 ± 0.00096 | 1.41498 ± 0.00096 | 1.41315 ± 0.00096 | 1.41252 ± 0.00096
x1 = 0.9562 | 1.42009 ± 0.00099 | 1.41886 ± 0.00099 | 1.41756 ± 0.00099 | 1.41629 ± 0.00099 | 1.41507 ± 0.00099 | 1.41377 ± 0.00099 | 1.41258 ± 0.00099
x1 = 1 | 1.42064 ± 0.001 | 1.41935 ± 0.001 | 1.41806 ± 0.001 | 1.41676 ± 0.001 | 1.41547 ± 0.001 | 1.41417 ± 0.001 | 1.41288 ± 0.001
